Experimental findings from patent publication US5583115A, “Dialkyltiacumicin compounds” (Abbott Laboratories, priority 1995, dated 1996) are described below.

The structures appear in SMILES notation. Values after ≈ are worked out from the molar mass of the structure shown.

Test [1] has as its system Micrococcus luteus. Kind of test: MIC agar dilution, aerobic and facultative bacteria. In general terms: In agar dilution the substance is mixed into plates at graded concentrations.
Test [2] has as its system P. magnus. The experiment in a line: MIC agar dilution, anaerobic bacteria. As to conditions: Culture # 1778. The format is cell-based.
For test [3], the system named is B. vulgatus. Kind of test: MIC agar dilution, anaerobic bacteria. The format is cell-based.
Test [4] has as its system S. epidermidis. The experiment in a line: MIC agar dilution, aerobic and facultative bacteria. As to conditions: Culture # 1666.
Test [5] concerns B. loescheii. The experiment in a line: MIC agar dilution, anaerobic bacteria. As to conditions: Culture # 1767. The test is classed as cell-based.
Test [6] deals with B. thetaiotaomicron. The experiment in a line: MIC agar dilution, anaerobic bacteria. The format is cell-based.
The test system of test [7] is P. species. The experiment in a line: MIC agar dilution, anaerobic bacteria. The test is classed as cell-based. As to conditions: Culture # 1776.

Consider `CCc1c(Cl)c(OC)c(Cl)c(OC)c1C(=O)OC1C(C)OC(OCC2=CC=CCC(O)C(C)=CC(CC)C(OC3OC(C)(C)C(OC(=O)C(C)C)C(O)C3O)C(C)=CC(C)=CCC(C(C)O)OC2=O)C(OC)C1O` (centres unmarked) [Example 2, 3"', 5"'-Di-O-methyltiacumicin B], for which the MIC was 0.1 µg/mL (≈ 0.0921 µM) in test [1] (Culture # 2493); 0.1 µg/mL (≈ 0.0921 µM) in test [1] (Culture # 2517); > 2 µg/mL in test [2]; > 2 µg/mL in test [3] (Culture # 1762); > 2 µg/mL in test [3] (Culture # 2481); 50 µg/mL (≈ 46 µM) in test [4]. The MIC in test [5], in test [6] (Culture # 1764), in test [6] (Culture # 1765), in test [6] (Culture # 1766) and in test [7] was > 2 µg/mL in each case.

In general, MIC refers to the smallest concentration in the dilution series that meets the test's criterion for growth inhibition. Lower therefore signals greater potency.
